Measured values published in patent publication US8580825B2, “Oxadiazole inhibitors of leukotriene production” (Boehringer Ingelheim International GmbH, priority 2010, dated 2013).

Legend:
[1] = target: T1, recombinant human FLAP protein (Homo sapiens, UniProt P20292); assay: FLAP binding assay (Scintillation Proximity Assay, displacement of [125I]L-691,831); conditions: read-out: FLAP SPA IC50
T1 construct: made in house; host or cells: Sf9 insect cells (100,000xg membrane fraction used)
T1 sequence (P20292 1-161): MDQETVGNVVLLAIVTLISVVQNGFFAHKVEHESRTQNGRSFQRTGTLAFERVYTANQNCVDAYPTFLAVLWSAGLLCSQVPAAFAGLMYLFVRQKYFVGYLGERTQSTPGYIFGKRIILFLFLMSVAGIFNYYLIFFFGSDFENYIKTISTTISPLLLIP
Description: Compounds are assessed for the ability to bind to FLAP in a binding assay that measures compound-specific displacement of an iodinated (^125I) FLAP inhibitor via a Scintillation Proximity Assay format (adapted from S. Charleson et al., Mol. Pharmacol., 1992, 41, 873-879).
Cell pellets produced from sf9 insect cells expressing recombinant human FLAP protein are resuspended in buffer A [15 mM Tris-HCl (pH 7.5), 2 mM MgCl2, 0.3 mM EDTA, 1 mM PMSF]. The cells are lysed with a Dounce homogenizer and the material is centrifuged at 10,000×g for 10 minutes. The supernatant is then collected and centrifuged at 100,000×g for 60 minutes. To prepare membrane protein for an assay, an aliquot of the 100,000×g pellet is resuspended in 1 ml of buffer A, Dounce homogenized, and finally subjected to polytron mixing (30 seconds). Membrane protein (25 μl, 5 μg) is mixed with WGA SPA beads (Amersham) and stirred for 1 h. […] (final concentrations: beads, 200 μg/well; protein, 5 μg/well; [^125I] probe, 0.08 nM/well (17 nCi/well). The plates are shaken for 2 h before reading on a Microbeta plate reader. Non-specific binding is determined by the addition of 10 μM cold L-691,831 compound.

[2] = system: synthesis of LTB4 in human whole blood; assay: human whole blood LTB4 production inhibition assay; type: cell-based; conditions: calcimycin stimulated, read-out: hWB LTB4 IC50
Summary of the method: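 LTB4 levels in plasma were measured by antibody-based HTRF after heparinized human whole blood, pretreated with compound (15 min, 37° C), was challenged with 20 μM calcimycin for 30 min at 37° C.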

IC50 [1]	IC50 [2]	SMILES
0.0127 µM	0.23 µM	CNC(=O)Cn1cc(-c2nc([C@@](C)(c3ccc(-c4cnc(N)nc4)nc3)C(C)C)no2)cn1 [Example 53, 2-[4-(3-{(2R)-2-[6-(2-aminopyrimidin-5-yl)pyridin-3-yl]-3-methylbutan-2-yl}-1,2,4-oxadiazol-5-yl)-1H-pyrazol-1-yl]-N-methylacetamide]
0.0707 µM	0.75 µM	CNC(=O)Cn1cc(-c2nc([C@](C)(c3ccc(-c4cnc(N)nc4)nc3)C(C)C)no2)cn1 [Example 54, 2-[4-(3-{(2S)-2-[6-(2-aminopyrimidin-5-yl)pyridin-3-yl]-3-methylbutan-2-yl}-1,2,4-oxadiazol-5-yl)-1H-pyrazol-1-yl]-N-methylacetamide]
0.0025 µM	0.046 µM	COCCN(C)c1cnc(-c2nc([C@@](C)(c3ccc(-c4cnc(N)nc4)nc3)C(C)C)no2)cn1 [Example 55, 5-{5-[(2R)-2-(5-{5-[(2-methoxyethyl)(methyl)amino]pyrazin-2-yl}-1,2,4-oxadiazol-3-yl)-3-methylbutan-2-yl]pyridin-2-yl}pyrimidin-2-amine]
0.0118 µM	0.23 µM	COCCN(C)c1cnc(-c2nc([C@](C)(c3ccc(-c4cnc(N)nc4)nc3)C(C)C)no2)cn1 [Example 56, 5-{5-[(2S)-2-(5-{5-[(2-methoxyethyl)(methyl)amino]pyrazin-2-yl}-1,2,4-oxadiazol-3-yl)-3-methylbutan-2-yl]pyridin-2-yl}pyrimidin-2-amine]
0.45 µM	1.8 µM	CC(C)[C@@](C)(c1ccc(-c2cnc(N)nc2)nc1)c1noc(-c2cnn(CC(=O)N(C)C)c2)n1 [Example 59, 2-[4-(3-{(2S)-2-[6-(2-aminopyrimidin-5-yl)pyridin-3-yl]-3-methylbutan-2-yl}-1,2,4-oxadiazol-5-yl)-1H-pyrazol-1-yl]-N,N-dimethylacetamide]
0.0034 µM	0.017 µM	CC(C)[C@](C)(c1ccc(-c2ccc(N)nc2)nc1)c1noc(-c2cnn(C)c2)n1 [Example 60, 5-{(2R)-3-methyl-2-[5-(1-methyl-1H-pyrazol-4-yl)-1,2,4-oxadiazol-3-yl]butan-2-yl}-2,3′-bipyridin-6′-amine]
0.003 µM	0.048 µM	CC(C)[C@](C)(c1ccc(-c2cnc(N)nc2)nc1)c1noc(-c2cnn(CC(=O)N(C)C)c2)n1 [Example 61, 2-[4-(3-{(2R)-2-[6-(2-aminopyrimidin-5-yl)pyridin-3-yl]-3-methylbutan-2-yl}-1,2,4-oxadiazol-5-yl)-1H-pyrazol-1-yl]-N,N-dimethylacetamide]
0.0194 µM	0.42 µM	CC(C)C(C)(c1ccc(-c2cnc(N)nc2)nc1)c1noc(-c2ccc(I)cc2)n1 (stereo not shown) [Example 62, 5-(5-{2-[5-(4-iodophenyl)-1,2,4-oxadiazol-3-yl]-3-methylbutan-2-yl}pyridin-2-yl)pyrimidin-2-amine]
0.0648 µM	0.84 µM	CC(C)C(C)(c1ccc(-c2cnc(N)nc2)nc1)c1noc(-c2ccc(I)c(Br)c2)n1 (stereo not shown) [Example 69, 5-(5-{2-[5-(3-bromo-4-iodophenyl)-1,2,4-oxadiazol-3-yl]-3-methylbutan-2-yl}pyridin-2-yl)pyrimidin-2-amine]
0.0124 µM	0.24 µM	CC(C)C(C)(c1ccc(-c2cnc(N)nc2)nc1)c1noc(-c2cccnc2)n1 (stereo not shown) [Example 70, 5-(5-{3-methyl-2-[5-(pyridin-3-yl)-1,2,4-oxadiazol-3-yl]butan-2-yl}pyridin-2-yl)pyrimidin-2-amine]
0.0081 µM	0.84 µM	CC(C)C(C)(c1ccc(-c2cnc(N)nc2)nc1)c1noc(-c2ccccc2)n1 (stereo not shown) [Example 71, 5-{5-[3-methyl-2-(5-phenyl-1,2,4-oxadiazol-3-yl)butan-2-yl]pyridin-2-yl}pyrimidin-2-amine]
0.0264 µM	0.44 µM	Cc1ccc(-c2nc(C(C)(c3ccc(-c4cnc(N)nc4)nc3)C(C)C)no2)cn1 (stereo not shown) [Example 72, 5-(5-{3-methyl-2-[5-(6-methylpyridin-3-yl)-1,2,4-oxadiazol-3-yl]butan-2-yl}pyridin-2-yl)pyrimidin-2-amine]
0.0039 µM	0.11 µM	CC(C)C(C)(c1ccc(-c2cnc(N)nc2)nc1)c1noc(-c2cn[nH]c2)n1 (stereo not shown) [Example 73, 5-(5-{3-methyl-2-[5-(1H-pyrazol-4-yl)-1,2,4-oxadiazol-3-yl]butan-2-yl}pyridin-2-yl)pyrimidin-2-amine]
0.0031 µM	0.22 µM	CC(C)C(C)(c1ccc(-c2cnc(N)nc2)nc1)c1noc(-c2ccc(NCCO)nc2)n1 (stereo not shown) [Example 74, 2-{[5-(3-{2-[6-(2-aminopyrimidin-5-yl)pyridin-3-yl]-3-methylbutan-2-yl}-1,2,4-oxadiazol-5-yl)pyridin-2-yl]amino}ethanol]

Second part, the molecule before the results:

SMILES	IC50 [1]	IC50 [2]
Cn1cc(-c2nc(C(C)(c3ccc(-c4cnc(N)nc4)nc3)C3CC3)no2)cn1 (stereo not shown) [Example 50, 5-(5-{1-cyclopropyl-1-[5-(1-methyl-1H-pyrazol-4-yl)-1,2,4-oxadiazol-3-yl]ethyl}pyridin-2-yl)pyrimidin-2-amine]	0.0095 µM	0.11 µM
CC(C)[C@](C)(c1ccc(-c2cnc(N)nc2)nc1)c1noc(-c2cnc(N3CCNCC3)cn2)n1 [Example 51, 5-{5-[(2R)-3-methyl-2-{5-[5-(piperazin-1-yl)pyrazin-2-yl]-1,2,4-oxadiazol-3-yl}butan-2-yl]pyridin-2-yl}pyrimidin-2-amine]	0.003 µM	0.16 µM
CC(C)[C@@](C)(c1ccc(-c2cnc(N)nc2)nc1)c1noc(-c2cnc(N3CCNCC3)cn2)n1 [Example 52, 5-{5-[(2S)-3-methyl-2-{5-[5-(piperazin-1-yl)pyrazin-2-yl]-1,2,4-oxadiazol-3-yl}butan-2-yl]pyridin-2-yl}pyrimidin-2-amine]	0.014 µM	0.27 µM
Cn1cc(-c2nc([C@@](C)(c3ccc(-c4cnc(N)nc4)nc3)C3CC3)no2)cn1 [Example 57, 5-(5-{(1R)-1-cyclopropyl-1-[5-(1-methyl-1H-pyrazol-4-yl)-1,2,4-oxadiazol-3-yl]ethyl}pyridin-2-yl)pyrimidin-2-amine]	0.016 µM	0.033 µM
Cn1cc(-c2nc([C@](C)(c3ccc(-c4cnc(N)nc4)nc3)C3CC3)no2)cn1 [Example 58, 5-(5-{(1S)-1-cyclopropyl-1-[5-(1-methyl-1H-pyrazol-4-yl)-1,2,4-oxadiazol-3-yl]ethyl}pyridin-2-yl)pyrimidin-2-amine]	0.23 µM	0.98 µM
CC(c1ccc(-c2cnc(N)nc2)nc1)(c1noc(-c2cnn(C3COC3)c2)n1)C1CC1 (stereo not shown) [Example 63, 5-[5-(1-cyclopropyl-1-{5-[1-(oxetan-3-yl)-1H-pyrazol-4-yl]-1,2,4-oxadiazol-3-yl}-ethyl)pyridin-2-yl]pyrimidin-2-amine]	0.0087 µM	0.029 µM
CC(c1ccc(-c2cnc(N)nc2)nc1)(c1noc(-c2cn[nH]c2)n1)C1CC1 (stereo not shown) [Example 64, 5-(5-{1-cyclopropyl-1-[5-(1H-pyrazol-4-yl)-1,2,4-oxadiazol-3-yl]ethyl}pyridin-2-yl)pyrimidin-2-amine]	0.0063 µM	0.08 µM
C=C(CO)n1cc(-c2nc(C(C)(c3ccc(-c4cnc(N)nc4)nc3)C3CC3)no2)cn1 (stereo not shown) [Example 65, 2-[4-(3-{1-[6-(2-aminopyrimidin-5-yl)pyridin-3-yl]-1-cyclopropylethyl}-1,2,4-oxadiazol-5-yl)-1H-pyrazol-1-yl]prop-2-en-1-ol]	0.0016 µM	0.028 µM
CN(C)C(=O)Cn1cc(-c2nc(C(C)(c3ccc(-c4cnc(N)nc4)nc3)C3CC3)no2)cn1 (stereo not shown) [Example 67, 2-[4-(3-{1-[6-(2-aminopyrimidin-5-yl)pyridin-3-yl]-1-cyclopropylethyl}-1,2,4-oxadiazol-5-yl)-1H-pyrazol-1-yl]-N,N-dimethylacetamide]	0.11 µM	0.29 µM
COCCn1cc(-c2nc(C(C)(c3ccc(-c4cnc(N)nc4)nc3)C3CC3)no2)cn1 (stereo not shown) [Example 68, 5-[5-(1-cyclopropyl-1-{5[1-(2-methoxyethyl)-1H-pyrazol-4-yl]-1,2,4-oxadiazol-3-yl}ethyl)pyridin-2-yl]pyrimidin-2-amine]	0.024 µM	0.08 µM
COCCn1cc(-c2nc([C@@](C)(c3ccc(-c4cnc(N)nc4)nc3)C3CC3)no2)cn1 [Example 75, 5-{5-[(1R)-1-cyclopropyl-1-{5-[1-(2-methoxyethyl)-1H-pyrazol-4-yl]-1,2,4-oxadiazol-3-yl}ethyl]pyridin-2-yl}pyrimidin-2-amine]	0.032 µM	0.052 µM
COCCn1cc(-c2nc([C@](C)(c3ccc(-c4cnc(N)nc4)nc3)C3CC3)no2)cn1 [Example 76, 5-{5-[(1S)-1-cyclopropyl-1-{5-[1-(2-methoxyethyl)-1H-pyrazol-4-yl]-1,2,4-oxadiazol-3-yl}ethyl]pyridin-2-yl}pyrimidin-2-amine]	0.19 µM	2 µM
